Results: patent US11109593B2, “Isoxazolin-5-one derivative and herbicide containing same as active ingredient” (HOKKO CHEMICAL INDUSTRY CO., LTD., priority 2017, dated 2021)

These compounds were tested on Chenopodium album (assay: Test Example 4: herbicidal effect test by treatment of leave and stem in dry field farming (seven days after seeding)). Settings: 120 g/10a active ingredient; emulsion sprayed seven days after seeding; evaluated 14 days after treatment.
Assay type: in vivo
Method in brief: (§1)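 Duplicate pots were scored 14 days post-spray by dry weight, herbicidal rate = {1 − treated/untreated average dry weight} × 100. The water-diluted emulsion, equivalent to 120 g active ingredient per 10 ares in 100 L, was applied seven days after sowing 20 seeds each into the upper 1 cm of alluvial soil.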

Row | Compound | herbicidal effect (herbicidal rate), Chenopodium album [%]
1 | COCC(C)n1oc(=O)c(Cc2ccccc2N(C(=O)OCc2ccccc2)S(=O)(=O)C(F)(F)F)c1C (centres unmarked) [Compound 1-790] | 40
2 | Cc1c(Cc2ccccc2N(S(=O)(=O)C(F)(F)F)S(=O)(=O)C(F)(F)F)c(=O)on1C(c1ccccc1)C(C)C (centres unmarked) [Compound 1-1040] | 40

What follows are compounds tested on southern crabgrass in the same assay as above. Settings: 120 g/10a active ingredient; emulsion sprayed seven days after seeding; evaluated 14 days after treatment.
Assay type: in vivo
Method in brief: as §1

Row | Compound | herbicidal effect (herbicidal rate), southern crabgrass [%]
3 | COCC(C)n1oc(=O)c(Cc2ccccc2N(C(=O)OCc2ccccc2)S(=O)(=O)C(F)(F)F)c1C (centres unmarked) [Compound 1-790] | 90
4 | Cc1c(Cc2ccccc2N(S(=O)(=O)C(F)(F)F)S(=O)(=O)C(F)(F)F)c(=O)on1C(c1ccccc1)C(C)C (centres unmarked) [Compound 1-1040] | 90

The compounds below were run on Echinochloa crus-galli in the same assay as above. Settings: 120 g/10a active ingredient; emulsion sprayed seven days after seeding; evaluated 14 days after treatment.
Assay type: in vivo
Method in brief: as §1

Row | Compound | herbicidal effect (herbicidal rate), Echinochloa crus-galli [%]
5 | COCC(C)n1oc(=O)c(Cc2ccccc2N(C(=O)OCc2ccccc2)S(=O)(=O)C(F)(F)F)c1C (centres unmarked) [Compound 1-790] | 90
6 | Cc1c(Cc2ccccc2N(S(=O)(=O)C(F)(F)F)S(=O)(=O)C(F)(F)F)c(=O)on1C(c1ccccc1)C(C)C (centres unmarked) [Compound 1-1040] | 90

The compounds below were run on Amaranthus viridis in the same assay as above. Settings: 120 g/10a active ingredient; emulsion sprayed seven days after seeding; evaluated 14 days after treatment.
Assay type: in vivo
Method in brief: as §1

Row | Compound | herbicidal effect (herbicidal rate), Amaranthus viridis [%]
7 | COCC(C)n1oc(=O)c(Cc2ccccc2N(C(=O)OCc2ccccc2)S(=O)(=O)C(F)(F)F)c1C (centres unmarked) [Compound 1-790] | 40
8 | Cc1c(Cc2ccccc2N(S(=O)(=O)C(F)(F)F)S(=O)(=O)C(F)(F)F)c(=O)on1C(c1ccccc1)C(C)C (centres unmarked) [Compound 1-1040] | 50

Each compound was assayed on Chenopodium album (assay: Test Example 3: herbicidal effect test by treatment of dry field farming soil (one day after seeding)). Settings: 120 g/10a active ingredient, evaluated 14 days after treatment.
Assay type: in vivo
Method in brief: (§2)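 Herbicidal rate (%) = {1 − treated/untreated mean plant dry weight} × 100, scored 14 days after spraying, duplicate pots per concentration. Emulsified compound was water-diluted and applied to soil surface one day post-seeding at 120 g a.i. per 10 ares.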

Row | Compound | herbicidal rate, Chenopodium album [%]
9 | COCC(C)n1oc(=O)c(Cc2ccccc2N(C(=O)OCc2ccccc2)S(=O)(=O)C(F)(F)F)c1C (centres unmarked) [Compound 1-790] | 90
10 | Cc1c(Cc2ccccc2N(S(=O)(=O)C(F)(F)F)S(=O)(=O)C(F)(F)F)c(=O)on1C(c1ccccc1)C(C)C (centres unmarked) [Compound 1-1040] | 80

The compounds below were run on southern crabgrass in the same assay as above. Settings: 120 g/10a active ingredient, evaluated 14 days after treatment.
Assay type: in vivo
Method in brief: as §2

Row | Compound | herbicidal rate, southern crabgrass [%]
11 | COCC(C)n1oc(=O)c(Cc2ccccc2N(C(=O)OCc2ccccc2)S(=O)(=O)C(F)(F)F)c1C (centres unmarked) [Compound 1-790] | 90
12 | Cc1c(Cc2ccccc2N(S(=O)(=O)C(F)(F)F)S(=O)(=O)C(F)(F)F)c(=O)on1C(c1ccccc1)C(C)C (centres unmarked) [Compound 1-1040] | 100

These compounds were tested on Echinochloa crus-galli in the same assay as above. Settings: 120 g/10a active ingredient, evaluated 14 days after treatment.
Assay type: in vivo
Method in brief: as §2

Row | Compound | herbicidal rate, Echinochloa crus-galli [%]
13 | COCC(C)n1oc(=O)c(Cc2ccccc2N(C(=O)OCc2ccccc2)S(=O)(=O)C(F)(F)F)c1C (centres unmarked) [Compound 1-790] | 90
14 | Cc1c(Cc2ccccc2N(S(=O)(=O)C(F)(F)F)S(=O)(=O)C(F)(F)F)c(=O)on1C(c1ccccc1)C(C)C (centres unmarked) [Compound 1-1040] | 100

Each compound was assayed on Amaranthus viridis in the same assay as above. Settings: 120 g/10a active ingredient, evaluated 14 days after treatment.
Assay type: in vivo
Method in brief: as §2

Row | Compound | herbicidal rate, Amaranthus viridis [%]
15 | COCC(C)n1oc(=O)c(Cc2ccccc2N(C(=O)OCc2ccccc2)S(=O)(=O)C(F)(F)F)c1C (centres unmarked) [Compound 1-790] | 90
16 | Cc1c(Cc2ccccc2N(S(=O)(=O)C(F)(F)F)S(=O)(=O)C(F)(F)F)c(=O)on1C(c1ccccc1)C(C)C (centres unmarked) [Compound 1-1040] | 100

Each compound was assayed on broad leaf weeds (Lindernia pyxidaria and Monochoria vaginalis) (assay: Test Example 2: herbicidal effect test by treatment during growing period in paddy rice cultivation (seven days after seeding)). Settings: Lindernia pyxidaria, 120 g/10a active ingredient, assessed 14 days after treatment, dry weight vs untreated area.
Assay type: in vivo
Method in brief: (§3)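 Emulsion formulations, diluted in water, applied dropwise to flooded pots (about 3 cm water) 7 days post-seeding at 120 g a.i./10 ares. Weeds sown 30 seeds each, 0–1 cm deep in puddled paddy soil; greenhouse. Readout: % reduction in plant dry weight vs untreated, day 14, duplicates.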

Row | Compound | Herbicidal rate (%) Lindernia pyxidaria [%]
17 | COCC(C)n1oc(=O)c(Cc2ccccc2N(C(=O)OCc2ccccc2)S(=O)(=O)C(F)(F)F)c1C (centres unmarked) [Compound 1-790] | 90
18 | Cc1c(Cc2ccccc2N(S(=O)(=O)C(F)(F)F)S(=O)(=O)C(F)(F)F)c(=O)on1C(c1ccccc1)C(C)C (centres unmarked) [Compound 1-1040] | 60

Same assay, conditions: Monochoria vaginalis, 120 g/10a active ingredient, assessed 14 days after treatment, dry weight vs untreated area

Row | Compound | Herbicidal rate (%) Monochoria vaginalis [%]
19 | COCC(C)n1oc(=O)c(Cc2ccccc2N(C(=O)OCc2ccccc2)S(=O)(=O)C(F)(F)F)c1C (centres unmarked) [Compound 1-790] | 90
20 | Cc1c(Cc2ccccc2N(S(=O)(=O)C(F)(F)F)S(=O)(=O)C(F)(F)F)c(=O)on1C(c1ccccc1)C(C)C (centres unmarked) [Compound 1-1040] | 60

What follows are compounds tested on Scirpus juncoides in the same assay as above. Settings: 120 g/10a active ingredient, assessed 14 days after treatment, dry weight vs untreated area.
Assay type: in vivo
Method in brief: as §3

Row | Compound | Herbicidal rate (%) Scirpus juncoides [%]
21 | COCC(C)n1oc(=O)c(Cc2ccccc2N(C(=O)OCc2ccccc2)S(=O)(=O)C(F)(F)F)c1C (centres unmarked) [Compound 1-790] | 90
22 | Cc1c(Cc2ccccc2N(S(=O)(=O)C(F)(F)F)S(=O)(=O)C(F)(F)F)c(=O)on1C(c1ccccc1)C(C)C (centres unmarked) [Compound 1-1040] | 70

Each compound was assayed on Echinochloa crus-galli in the same assay as above. Settings: 120 g/10a active ingredient, assessed 14 days after treatment, dry weight vs untreated area.
Assay type: in vivo
Method in brief: as §3

Row | Compound | Herbicidal rate (%) Echinochloa crus-galli [%]
23 | COCC(C)n1oc(=O)c(Cc2ccccc2N(C(=O)OCc2ccccc2)S(=O)(=O)C(F)(F)F)c1C (centres unmarked) [Compound 1-790] | 90
24 | Cc1c(Cc2ccccc2N(S(=O)(=O)C(F)(F)F)S(=O)(=O)C(F)(F)F)c(=O)on1C(c1ccccc1)C(C)C (centres unmarked) [Compound 1-1040] | 100

What follows are compounds tested on broad leaf weeds (Lindernia pyxidaria and Monochoria vaginalis) (assay: Test Example 1: herbicidal effect test by treatment of rice paddy soil (immediately after seeding)). Settings: Lindernia pyxidaria, 120 g/10a active ingredient, dry weight vs untreated area, 14 days after treatment.
Assay type: in vivo
Method in brief: (§4)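 Applied at 120 g a.i./10 ares as diluted emulsion dropped into flooded (~3 cm) paddy soil pots right after sowing seeds 0–1 cm deep; greenhouse, two replicates. At day 14, dry weight of treated versus untreated plants gives % herbicidal rate.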

Row | Compound | Herbicidal rate (%) Lindernia pyxidaria [%]
25 | COCC(C)n1oc(=O)c(Cc2ccccc2N(C(=O)OCc2ccccc2)S(=O)(=O)C(F)(F)F)c1C (centres unmarked) [Compound 1-790] | 90
26 | Cc1c(Cc2ccccc2N(S(=O)(=O)C(F)(F)F)S(=O)(=O)C(F)(F)F)c(=O)on1C(c1ccccc1)C(C)C (centres unmarked) [Compound 1-1040] | 100

Same assay, conditions: Monochoria vaginalis, 120 g/10a active ingredient, dry weight vs untreated area, 14 days after treatment

Row | Compound | Herbicidal rate (%) Monochoria vaginalis [%]
27 | COCC(C)n1oc(=O)c(Cc2ccccc2N(C(=O)OCc2ccccc2)S(=O)(=O)C(F)(F)F)c1C (centres unmarked) [Compound 1-790] | 90
28 | Cc1c(Cc2ccccc2N(S(=O)(=O)C(F)(F)F)S(=O)(=O)C(F)(F)F)c(=O)on1C(c1ccccc1)C(C)C (centres unmarked) [Compound 1-1040] | 90

What follows are compounds tested on Scirpus juncoides in the same assay as above. Settings: 120 g/10a active ingredient, dry weight vs untreated area, 14 days after treatment.
Assay type: in vivo
Method in brief: as §4

Row | Compound | Herbicidal rate (%) Scirpus juncoides [%]
29 | COCC(C)n1oc(=O)c(Cc2ccccc2N(C(=O)OCc2ccccc2)S(=O)(=O)C(F)(F)F)c1C (centres unmarked) [Compound 1-790] | 90
30 | Cc1c(Cc2ccccc2N(S(=O)(=O)C(F)(F)F)S(=O)(=O)C(F)(F)F)c(=O)on1C(c1ccccc1)C(C)C (centres unmarked) [Compound 1-1040] | 90

The compounds below were run on Echinochloa crus-galli in the same assay as above. Settings: 120 g/10a active ingredient, dry weight vs untreated area, 14 days after treatment.
Assay type: in vivo
Method in brief: as §4

Row | Compound | Herbicidal rate (%) Echinochloa crus-galli [%]
31 | COCC(C)n1oc(=O)c(Cc2ccccc2N(C(=O)OCc2ccccc2)S(=O)(=O)C(F)(F)F)c1C (centres unmarked) [Compound 1-790] | 90
32 | Cc1c(Cc2ccccc2N(S(=O)(=O)C(F)(F)F)S(=O)(=O)C(F)(F)F)c(=O)on1C(c1ccccc1)C(C)C (centres unmarked) [Compound 1-1040] | 100
